ChEMBL document CHEMBL3797178, “Synthesis, antimycobacterial and antibacterial activity of 1-(6-amino-3,5-difluoropyridin-2-yl)fluoroquinolone derivatives containing an oxime functional moiety” (2016)
≈ marks a conversion by molar mass, not a printed value.

How the values were obtained:
Assay type in all cases: functional
Pseudomonas aeruginosa [1] = assay: Antibacterial activity against Pseudomonas aeruginosa 14-9 after 18 to 24 hrs by CLSI M100-S11 method
Enterococcus faecium [2] = assay: Antibacterial activity against Enterococcus faecium 14-1 after 18 to 24 hrs by CLSI M100-S11 method
Klebsiella pneumoniae [3] = assay: Antibacterial activity against extended-spectrum beta-lactamase-producing Klebsiella pneumoniae 14-19 after 18 to 24 hrs by CLSI M100-S11 method
Escherichia coli [4] = assay: Antibacterial activity against extended-spectrum beta-lactamase-producing Escherichia coli 14-2 after 18 to 24 hrs by CLSI M100-S11 method
Staphylococcus aureus [5] = assay: Antibacterial activity against methicillin-resistant Staphylococcus aureus 14-5 after 18 to 24 hrs by CLSI M100-S11 method
Streptococcus pneumoniae = assay: Antibacterial activity against Streptococcus pneumoniae ATCC 19615 after 18 to 24 hrs by CLSI M100-S11 method
Klebsiella pneumoniae [6] = assay: Antibacterial activity against extended-spectrum beta-lactamase-producing Klebsiella pneumoniae 14-17 after 18 to 24 hrs by CLSI M100-S11 method
Pseudomonas aeruginosa [7] = assay: Antibacterial activity against Pseudomonas aeruginosa 14-15 after 18 to 24 hrs by CLSI M100-S11 method
Staphylococcus aureus [8] = assay: Antibacterial activity against methicillin-resistant Staphylococcus aureus 14-4 after 18 to 24 hrs by CLSI M100-S11 method
[9] = tested on: Mycobacterium tuberculosis; assay: Antimycobacterial activity against Mycobacterium tuberculosis H37Rv ATCC 27294 after 3 days by microplate Alamar Blue assay; conditions: H37Rv ATCC 27294, 72 h
Klebsiella pneumoniae [10] = assay: Antibacterial activity against extended-spectrum beta-lactamase-producing Klebsiella pneumoniae 14-18 after 18 to 24 hrs by CLSI M100-S11 method
Klebsiella pneumoniae [11] = assay: Antibacterial activity against Klebsiella pneumoniae 14-2 after 18 to 24 hrs by CLSI M100-S11 method
Enterococcus faecium [12] = assay: Antibacterial activity against Enterococcus faecium 14-2 after 18 to 24 hrs by CLSI M100-S11 method
[13] = tested on: Staphylococcus epidermidis; assay: Antibacterial activity against methicillin-sensitive Staphylococcus epidermidis 14-2 after 18 to 24 hrs by CLSI M100-S11 method
Escherichia coli [14] = assay: Antibacterial activity against Escherichia coli ATCC 25922 after 18 to 24 hrs by CLSI M100-S11 method
[15] = tested on: Staphylococcus epidermidis; assay: Antibacterial activity against methicillin-resistant Staphylococcus epidermidis 14-37 after 18 to 24 hrs by CLSI M100-S11 method
Pseudomonas aeruginosa [16] = assay: Antibacterial activity against Pseudomonas aeruginosa 14-16 after 18 to 24 hrs by CLSI M100-S11 method
Pseudomonas aeruginosa [17] = assay: Antibacterial activity against Pseudomonas aeruginosa ATCC 27853 after 18 to 24 hrs by CLSI M100-S11 method
[18] = tested on: Staphylococcus epidermidis; assay: Antibacterial activity against methicillin-sensitive Staphylococcus epidermidis 14-4 after 18 to 24 hrs by CLSI M100-S11 method
[19] = tested on: Staphylococcus epidermidis; assay: Antibacterial activity against methicillin-resistant Staphylococcus epidermidis 14-39 after 18 to 24 hrs by CLSI M100-S11 method
Escherichia coli [20] = assay: Antibacterial activity against extended-spectrum beta-lactamase-producing Escherichia coli 14-1 after 18 to 24 hrs by CLSI M100-S11 method
Escherichia coli [21] = assay: Antibacterial activity against Escherichia coli 14-2 after 18 to 24 hrs by CLSI M100-S11 method
Pseudomonas aeruginosa [22] = assay: Antibacterial activity against Pseudomonas aeruginosa 14-14 after 18 to 24 hrs by CLSI M100-S11 method
[23] = tested on: Staphylococcus epidermidis; assay: Antibacterial activity against methicillin-sensitive Staphylococcus epidermidis 14-6 after 18 to 24 hrs by CLSI M100-S11 method
Klebsiella pneumoniae [24] = assay: Antibacterial activity against Klebsiella pneumoniae 14-4 after 18 to 24 hrs by CLSI M100-S11 method
Enterococcus faecalis [25] = assay: Antibacterial activity against Enterococcus faecalis 14-2 after 18 to 24 hrs by CLSI M100-S11 method
Pseudomonas aeruginosa [26] = assay: Antibacterial activity against Pseudomonas aeruginosa 14-19 after 18 to 24 hrs by CLSI M100-S11 method
Klebsiella pneumoniae [27] = assay: Antibacterial activity against Klebsiella pneumoniae 14-1 after 18 to 24 hrs by CLSI M100-S11 method
Klebsiella pneumoniae [28] = assay: Antibacterial activity against Klebsiella pneumoniae 14-3 after 18 to 24 hrs by CLSI M100-S11 method
Escherichia coli [29] = assay: Antibacterial activity against Escherichia coli 14-1 after 18 to 24 hrs by CLSI M100-S11 method
Staphylococcus aureus [30] = assay: Antibacterial activity against methicillin-sensitive Staphylococcus aureus 14-3 after 18 to 24 hrs by CLSI M100-S11 method
Enterococcus faecalis [31] = assay: Antibacterial activity against Enterococcus faecalis 14-1 after 18 to 24 hrs by CLSI M100-S11 method
Staphylococcus aureus [32] = assay: Antibacterial activity against methicillin-sensitive Staphylococcus aureus 14-2 after 18 to 24 hrs by CLSI M100-S11 method
[33] = tested on: Staphylococcus epidermidis; assay: Antibacterial activity against methicillin-resistant Staphylococcus epidermidis 14-22 after 18 to 24 hrs by CLSI M100-S11 method
Staphylococcus aureus [34] = assay: Antibacterial activity against methicillin-sensitive Staphylococcus aureus 14-4 after 18 to 24 hrs by CLSI M100-S11 method
Staphylococcus aureus [35] = assay: Antibacterial activity against Staphylococcus aureus CMCC 26003 after 18 to 24 hrs by CLSI M100-S11 method
Enterococcus faecalis [36] = assay: Antibacterial activity against Enterococcus faecalis 14-3 after 18 to 24 hrs by CLSI M100-S11 method

`CCO/N=C1\CN(c2nc3c(cc2F)c(=O)c(C(=O)O)cn3-c2nc(N)c(F)cc2F)[C@H]1CN` was tested, and the MIC (Pseudomonas aeruginosa [1]) was 32 µg/mL (≈ 67 µM), the MIC (Enterococcus faecium [2]) was over 128 µg/mL and the MIC (Klebsiella pneumoniae [3]) was over 128 µg/mL. The MIC (Escherichia coli [4]) was over 128 µg/mL, the MIC (Staphylococcus aureus [5]) was over 128 µg/mL and the MIC (Streptococcus pneumoniae) was 32 µg/mL (≈ 67 µM). For the same compound, the MIC (Klebsiella pneumoniae [6]) was over 128 µg/mL, the MIC (Pseudomonas aeruginosa [7]) was 64 µg/mL (≈ 134 µM) and the MIC (Staphylococcus aureus [8]) was over 128 µg/mL. It also gave an MIC [9] of over 32 µg/mL, an MIC (Klebsiella pneumoniae [10]) of 64 µg/mL (≈ 134 µM) and an MIC (Klebsiella pneumoniae [11]) of over 128 µg/mL. It also gave an MIC (Enterococcus faecium [12]) of 32 µg/mL (≈ 67 µM), an MIC [13] of over 128 µg/mL and an MIC (Escherichia coli [14]) of 2 µg/mL (≈ 4.19 µM). The MIC [15] was over 128 µg/mL, the MIC (Pseudomonas aeruginosa [16]) was 64 µg/mL (≈ 134 µM) and the MIC (Pseudomonas aeruginosa [17]) was 16 µg/mL (≈ 33.5 µM). It also gave an MIC [18] of 64 µg/mL (≈ 134 µM), an MIC [19] of over 129 µg/mL and an MIC (Escherichia coli [20]) of 64 µg/mL (≈ 134 µM). For the same compound, the MIC (Escherichia coli [21]) was over 128 µg/mL, the MIC (Pseudomonas aeruginosa [22]) was 64 µg/mL (≈ 134 µM) and the MIC [23] was 128 µg/mL (≈ 268 µM). For the same compound, the MIC (Klebsiella pneumoniae [24]) was 128 µg/mL (≈ 268 µM), the MIC (Enterococcus faecalis [25]) was over 128 µg/mL and the MIC (Pseudomonas aeruginosa [26]) was 64 µg/mL (≈ 134 µM). For the same compound, the MIC (Klebsiella pneumoniae [27]) was over 128 µg/mL, the MIC (Klebsiella pneumoniae [28]) was over 128 µg/mL and the MIC (Escherichia coli [29]) was over 128 µg/mL. It also gave an MIC (Staphylococcus aureus [30]) of 8 µg/mL (≈ 16.8 µM), an MIC (Enterococcus faecalis [31]) of over 128 µg/mL and an MIC (Staphylococcus aureus [32]) of 4 µg/mL (≈ 8.38 µM). It also gave an MIC [33] of over 128 µg/mL, an MIC (Staphylococcus aureus [34]) of 4 µg/mL (≈ 8.38 µM) and an MIC (Staphylococcus aureus [35]) of 2 µg/mL (≈ 4.19 µM). It also gave an MIC (Enterococcus faecalis [36]) of over 128 µg/mL.
Work on `CO/N=C1\CN(c2nc3c(cc2F)c(=O)c(C(=O)O)cn3-c2nc(N)c(F)cc2F)[C@@H]1CN` yielded an MIC (Pseudomonas aeruginosa [1]) of 64 µg/mL (≈ 138 µM), an MIC (Enterococcus faecium [2]) of over 128 µg/mL and an MIC (Klebsiella pneumoniae [3]) of over 128 µg/mL. The MIC (Escherichia coli [4]) was over 128 µg/mL, the MIC (Staphylococcus aureus [5]) was over 128 µg/mL and the MIC (Streptococcus pneumoniae) was 128 µg/mL (≈ 276 µM). The MIC (Klebsiella pneumoniae [6]) was over 128 µg/mL, the MIC (Pseudomonas aeruginosa [7]) was 64 µg/mL (≈ 138 µM) and the MIC (Staphylococcus aureus [8]) was over 128 µg/mL. For the same compound, the MIC [9] was over 32 µg/mL, the MIC (Klebsiella pneumoniae [10]) was 64 µg/mL (≈ 138 µM) and the MIC (Klebsiella pneumoniae [11]) was over 128 µg/mL. It also gave an MIC (Enterococcus faecium [12]) of 64 µg/mL (≈ 138 µM), an MIC [13] of over 128 µg/mL and an MIC (Escherichia coli [14]) of 16 µg/mL (≈ 34.5 µM). It also gave an MIC [15] of over 128 µg/mL, an MIC (Pseudomonas aeruginosa [16]) of 64 µg/mL (≈ 138 µM) and an MIC (Pseudomonas aeruginosa [17]) of 64 µg/mL (≈ 138 µM). The MIC [18] was over 128 µg/mL, the MIC [19] was over 131 µg/mL and the MIC (Escherichia coli [20]) was over 128 µg/mL. For the same compound, the MIC (Escherichia coli [21]) was over 128 µg/mL, the MIC (Pseudomonas aeruginosa [22]) was 64 µg/mL (≈ 138 µM) and the MIC [23] was over 128 µg/mL. The MIC (Klebsiella pneumoniae [24]) was over 128 µg/mL, the MIC (Enterococcus faecalis [25]) was over 128 µg/mL and the MIC (Pseudomonas aeruginosa [26]) was 64 µg/mL (≈ 138 µM). The MIC (Klebsiella pneumoniae [27]) was over 128 µg/mL, the MIC (Klebsiella pneumoniae [28]) was over 128 µg/mL and the MIC (Escherichia coli [29]) was over 128 µg/mL. It also gave an MIC (Staphylococcus aureus [30]) of 32 µg/mL (≈ 69.1 µM), an MIC (Enterococcus faecalis [31]) of over 128 µg/mL and an MIC (Staphylococcus aureus [32]) of 32 µg/mL (≈ 69.1 µM). It also gave an MIC [33] of over 128 µg/mL, an MIC (Staphylococcus aureus [34]) of 16 µg/mL (≈ 34.5 µM) and an MIC (Staphylococcus aureus [35]) of 16 µg/mL (≈ 34.5 µM). The MIC (Enterococcus faecalis [36]) was over 128 µg/mL.
